From patent US20080207537A1, “Topical Ungual Formulations” (priority 2005, published 2008)

Assays:
[1] = Redox potential measurement against Ag/AgCl reference electrode; assay type: physicochemical; settings: for Redox potential: urea-H2O2 with H2O2 content of 15%
[2] = pH of the agent solutions; assay type: physicochemical; settings: for pH of solution prior to application: 5% concentration, solution applied to nail (FIG. 7)
[3] = Terbinafine diffusion study (ChubTur diffusion cell); assay type: in vitro ADME, human
Experimental: Human nail samples (full thickness) of ca. 3 mm diameter were positioned between the two halves of the specifically designed ChubTur™ diffusion cell and clamped together. The receptor compartment was filled with a previously sonicated suitable buffer system to ensure sink conditions and the cells were fixed on a perspex holder mounted on a magnetic stirrer in a water bath maintained at 32° C. The receptor chamber contents were continuously agitated by small PTFE-coated magnetic followers driven by a submersible magnetic stirrer. A known amount of formulation/drug solution was applied to the surface of the nail (infinite dose) and at regular time intervals samples of buffer were taken from the receptor compartment, replaced with fresh receptor medium and assayed for drug content using HPLC.

[4] = 14C mannitol nail penetration study (nail diffusion cell); assay type: in vitro ADME, human; settings: single penetration enhancer
Experimental: The single penetration enhancers were made up in the appropriate solvent and spiked with ^14C mannitol (10 μl of the stock ^14C mannitol). When more than one penetration enhancer was applied to the nails, only the last penetration enhancer was spiked with ^14C mannitol prior to nail application. ^14C mannitol with no penetration enhancer was used as a control.
Pre-calibrated nail diffusion cells were assembled with full thickness human nail. The receiver fluid, which consisted of a 20% ethanol/water mixture, was put into the receiver well up to the etched mark on the side arm. A magnetic follower was inserted and the cells were then placed on a magnetic stirrer in a water bath maintained at 32° C. Cells were checked for leakage and air bubbles. […] This was to ensure that no cells contained any residual radioactivity and these readings were also taken as the background for each cell. […]
After taking the background reading (described in the section above) 50 μl of ^3H water (ca. 18000 dpm) was placed on top of the nail in the assembled nail diffusion cell, using a pre-calibrated Gilson pipette. […] This value was used to normalise each nail and, if values of radioactivity were considered too high, then cells were rejected due to leaks. […]

[5] = TA concentration 0.001% w/w, n = 3
[6] = TA concentration 0.005% w/w, n = 3
[7] = TA concentration 0.01% w/w, n = 3
[8] = TA concentration 0.05% w/w, n = 3
[9] = TA concentration 0.1% w/w, n = 3
[10] = TA concentration 2.5% w/w, n = 3
[11] = TA concentration 7.5% w/w, n = 3
[12] = TA concentration 10% w/w, n = 3
[13] = TA concentration 20% w/w, n = 3
[14] = H2O2 concentration 0.005 % w/w, n = 3
[15] = H2O2 concentration 0.01 % w/w, n = 3
[16] = H2O2 concentration 0.05 % w/w, n = 3
[17] = H2O2 concentration 0.1 % w/w, n = 3
[18] = H2O2 concentration 1 % w/w, n = 3
[19] = H2O2 concentration 10 % w/w, n = 3
[20] = H2O2 concentration 20 % w/w, n = 3
[21] = H2O2 concentration 30 % w/w, n = 3
[22] = H2O2 concentration 32.5 % w/w, n = 3
[23] = H2O2 concentration 35 % w/w, n = 3
[24] = DTT concentration 0.005 % w/w, n = 2
[25] = DTT concentration 0.01 % w/w, n = 2
[26] = DTT concentration 0.05 % w/w, n = 2
[27] = DTT concentration 0.1 % w/w, n = 2
[28] = DTT concentration 1 % w/w, n = 2
[29] = DTT concentration 5 % w/w, n = 2
[30] = DTT concentration 7.5 % w/w, n = 2
[31] = DTT concentration 10 % w/w, n = 2
[32] = Urea-H2O2, H2O2 content 0.0025 % w/w, n = 3
[33] = Urea-H2O2, H2O2 content 0.005 % w/w, n = 3
[34] = Urea-H2O2, H2O2 content 0.025 % w/w, n = 3
[35] = Urea-H2O2, H2O2 content 0.05 % w/w, n = 3
[36] = Urea-H2O2, H2O2 content 0.5 % w/w, n = 3
[37] = Urea-H2O2, H2O2 content 5 % w/w, n = 3
[38] = Urea-H2O2, H2O2 content 10 % w/w, n = 3
[39] = Urea-H2O2, H2O2 content 15 % w/w, n = 3
[40] = Urea-H2O2, H2O2 content 16.25 % w/w, n = 3
[41] = Urea-H2O2, H2O2 content 17.5 % w/w, n = 3

O=C([O-])CS.[Na+] [Sodium thioglycolate]
Mean Redox Potential ([1]; 0.5M concentration, n = 3): −281.7 mV | Mean pH ([2]; 0.5M concentration, n = 3): 6.90

Cl.N[C@@H](CS)C(=O)O.O [Cysteine, L-Cysteine hydrochloride hydrate]
Mean Redox Potential ([1]; 0.5M concentration, n = 3): −79.3 mV

CN(C/C=C/C#CC(C)(C)C)Cc1cccc2ccccc12 [terbinafine]
amount of drug penetrated the nail ([3]; nails soaked in 50:50 ethanol/water (control) for 20 h before drug, after 214 h): 44±13 μg per cm^2 | amount of drug penetrating the nail ([3]; pre-treatment with TA then urea-H2O2 for 30 min): less than 10 μg per cm^2 | amount of drug penetrating the nail ([3]; pre-treatment with TA then urea-H2O2 for 1 h): less than 10 μg per cm^2 | amount of terbinafine penetrating the human nail ([3]; pre-treatment with TA then urea-H2O2 for up to 20 h each, after 315 h): 3329±1842 μg per cm^2 | amount of drug penetrating the nail ([3]; pre-treatment with thioglycolic acid alone): 861±135 μg per cm^2 | amount of drug penetrating the nail ([3]; pre-treatment with urea-hydrogen peroxide alone): 47±33 μg per cm^2 | effect of pre-treatment on the amount of drug penetrating the nail ([3]; pre-treatment with urea-hydrogen peroxide versus control, p>0.05, ANOVA): no significant effect | amount of drug penetrating the nail ([3]; thioglycolic acid and urea-H2O2 applied sequentially prior to terbinafine, after 219 h): 2308±1332 μg per cm^2

N.O=C(O)CS [Ammonium thioglycolate]
Mean Redox Potential ([1]; 0.5M concentration, n = 3): −235.9 mV | Mean pH ([2]; 0.5M concentration, n = 3): 6.29

O=S(=O)([O-])OOS(=O)(=O)[O-].[K+].[K+] [Potassium persulphate]
Mean Redox Potential ([1]; 0.5M concentration, n = 3): 402.5 mV | Mean pH ([2]; 0.5M concentration, n = 3): 2.83

O=c1cc[nH]c(=S)[nH]1 [Thiouracil]
Mean Redox Potential ([1]; 0.5M concentration, n = 3): 53.4 mV | Mean pH ([2]; 0.5M concentration, n = 3): 6.28

O=C(O)CS [Thioglycolic acid]
Mean Redox Potential ([1]; 0.5M concentration, n = 3): −132.8 mV | Mean Redox Potential ([1]; 5% TA solution, approximate pH 2 (adjusted using NaOH), n = 3): −70.4 | Mean Redox Potential ([1]; 5% TA solution, approximate pH 3 (adjusted using NaOH), n = 3): −133.1 | Mean Redox Potential ([1]; 5% TA solution, approximate pH 4 (adjusted using NaOH), n = 3): −166.7 | Mean Redox Potential ([1]; 5% TA solution, approximate pH 5 (adjusted using NaOH), n = 3): −179.5 | Mean Redox Potential ([1]; 5% TA solution, approximate pH 6 (adjusted using NaOH), n = 3): −192.9 | Mean Redox Potential ([1]; 5% TA solution, approximate pH 8 (adjusted using NaOH), n = 3): −272.3 | Mean Redox Potential ([1]; 5% TA solution, approximate pH 10 (adjusted using NaOH), n = 3): −386.5 | Mean Redox Potential ([1]; 5% TA solution, approximate pH 11 (adjusted using NaOH), n = 3): −433.8 | Mean Redox Potential [1, 5]: −47.7 | Mean Redox Potential [1, 6]: −56.6 | Mean Redox Potential [1, 7]: −67.5 | Mean Redox Potential [1, 8]: −85.6 | Mean Redox Potential [1, 9]: −97.4 | Mean Redox Potential ([1]; TA concentration 1% w/w, n = 3): −119.8 | Mean Redox Potential [1, 10]: −126.5 | Mean Redox Potential ([1]; TA concentration 5% w/w, n = 3): −131.5 | Mean Redox Potential [1, 11]: −132.7 | Mean Redox Potential [1, 12]: −132.8 | Mean Redox Potential [1, 13]: −128.7 | permeation of 14C mannitol through full thickness human nail ([4]; Saturated TA (50%), rank among the enhancers (FIG. 2)): best penetration enhancer of mannitol | permeation of 14C mannitol through full thickness human nail ([4]; TA 5%, compared to DTT (FIG. 2)): drop below that of the DTT | Mean pH ([2]; 0.5M concentration, n = 3): 2.13 | pH of solution prior to application [2]: 2.12 | Mean pH [2, 5]: 2.97 | Mean pH [2, 6]: 3.12 | Mean pH [2, 7]: 3.05 | Mean pH [2, 8]: 2.53 | Mean pH [2, 9]: 2.66 | Mean pH ([2]; TA concentration 1% w/w, n = 3): 2.23 | Mean pH [2, 10]: 1.71 | Mean pH ([2]; TA concentration 5% w/w, n = 3): 1.85 | Mean pH [2, 11]: 1.76 | Mean pH [2, 12]: 1.83 | Mean pH [2, 13]: 1.61

Oc1cccc(O)c1 [Resorcinol]
Mean Redox Potential ([1]; 0.5M concentration, n = 3): 8.6 mV | Mean pH ([2]; 0.5M concentration, n = 3): 5.67

OO [Hydrogen peroxide]
Mean Redox Potential ([1]; 0.5M concentration, n = 3): 277.3 mV | Mean Redox Potential [1, 14]: 142.3 | Mean Redox Potential [1, 15]: 153.0 | Mean Redox Potential [1, 16]: 200.4 | Mean Redox Potential [1, 17]: 193.5 | Mean Redox Potential [1, 18]: 231.6 | Mean Redox Potential [1, 19]: 357.2 | Mean Redox Potential [1, 20]: 402.8 | Mean Redox Potential [1, 21]: 430.4 | Mean Redox Potential [1, 22]: 437.9 | Mean Redox Potential [1, 23]: 444.5 | Mean pH ([2]; 0.5M concentration, n = 3): 6.21 | Mean pH [2, 14]: 7.56 | Mean pH [2, 15]: 7.46 | Mean pH [2, 16]: 6.78 | Mean pH [2, 17]: 6.71 | Mean pH [2, 18]: 6.17 | Mean pH [2, 19]: 3.79 | Mean pH [2, 20]: 3.16 | Mean pH [2, 21]: 2.64 | Mean pH [2, 22]: 2.54 | Mean pH [2, 23]: 2.55

O=C(O)/C=C/c1ccc(O)cc1 [p-coumaric acid]
Mean Redox Potential ([1]; 0.5M concentration, n = 3): 114.1 mV | Mean pH ([2]; 0.5M concentration, n = 3): 3.54

O=C([O-])CS.O=C([O-])CS.[Ca+2] [Calcium thioglycolate]
Mean Redox Potential ([1]; 0.5M concentration, n = 3): −531.3 mV | Mean pH ([2]; 0.5M concentration, n = 3): 11.74 | pH of solution prior to application [2]: 11.43

CC12CCC(CC1)C(C)(C)O2 [Cineol]
Mean Redox Potential ([1]; 0.5M concentration, n = 3): 67.2 mV | Mean pH ([2]; 0.5M concentration, n = 3): 5.91

O[C@@H](CS)[C@@H](O)CS (racemic) [DTT, 1,4-dithio-DL-threitol]
Mean Redox Potential ([1]; 0.5M concentration, n = 3): −241.0 mV | Mean Redox Potential [1, 24]: −122.7 | Mean Redox Potential [1, 25]: −134.9 | Mean Redox Potential [1, 26]: −169.19 | Mean Redox Potential [1, 27]: −189.65 | Mean Redox Potential [1, 28]: −185.75 | Mean Redox Potential [1, 29]: −201.25 | Mean Redox Potential [1, 30]: −209.65 | Mean Redox Potential [1, 31]: −193.1 | Mean pH ([2]; 0.5M concentration, n = 3): 2.64 | Mean pH [2, 24]: 8.07 | Mean pH [2, 25]: 8.00 | Mean pH [2, 26]: 7.80 | Mean pH [2, 27]: 7.59 | Mean pH [2, 28]: 7.01 | Mean pH [2, 29]: 6.20 | Mean pH [2, 30]: 6.24 | Mean pH [2, 31]: 5.69

NC(N)=O.OO [Urea hydrogen Peroxide, Urea hydrogen peroxide addition compound]
Mean Redox Potential ([1]; 0.5M concentration, n = 3): 349.7 mV | Mean Redox Potential [1, 32]: 189.4 mV | Mean Redox Potential [1, 33]: 191.3 mV | Mean Redox Potential [1, 34]: 199.5 mV | Mean Redox Potential [1, 35]: 208.1 mV | Mean Redox Potential [1, 36]: 293.6 mV | Mean Redox Potential [1, 37]: 372.3 mV | Mean Redox Potential [1, 38]: 377.9 mV | Mean Redox Potential [1, 39]: 380.3 mV | Mean Redox Potential [1, 40]: 382.9 mV | Mean Redox Potential [1, 41]: 382.3 mV | Redox potential ([1]; approximate pH 2 (adjusted using HCl and NaOH), n = 3): 459.8 mV | Redox potential ([1]; approximate pH 4 (adjusted using HCl and NaOH), n = 3): 334.1 mV | Redox potential ([1]; approximate pH 6 (adjusted using HCl and NaOH), n = 3): 284.0 mV | Redox potential ([1]; approximate pH 8 (adjusted using HCl and NaOH), n = 3): 194.2 mV | Redox potential ([1]; approximate pH 10 (adjusted using HCl and NaOH), n = 3): 16.1 mV | Mean pH ([2]; 0.5M concentration, n = 3): 2.72 | Mean pH [2, 32]: 6.07 | Mean pH [2, 33]: 6.17 | Mean pH [2, 34]: 6.56 | Mean pH [2, 35]: 6.81 | Mean pH [2, 36]: 5.31 | Mean pH [2, 37]: 5.10 | Mean pH [2, 38]: 4.23 | Mean pH [2, 39]: 4.04 | Mean pH [2, 40]: 3.87 | Mean pH [2, 41]: 3.33

O=C(O)C(=O)O [Oxalic acid]
Mean Redox Potential ([1]; 0.5M concentration, n = 3): 254.8 mV | Mean pH ([2]; 0.5M concentration, n = 3): 1.33

O=C(O)CO [Glycolic acid]
Mean Redox Potential ([1]; 0.5M concentration, n = 3): 247.7 mV | Mean pH ([2]; 0.5M concentration, n = 3): 2.03
